Experimental data from US6787551B2, “Thiazolidinedione derivatives and pharmaceutical composition comprising the same” (Chong Kun Dang Pharmaceutical Corporation, priority 2002, dated 2004).

What was measured:
[1] = system: differentiated 3T3-L1 cell; assay: 2-Deoxy-D-[2,6-3H] glucose uptake assay; type: cell-based; settings: differentiated 3T3-L1 cells, 24 h with compound, 0.5 nM insulin; concentration giving 50% of maximum enhancement of insulin activation; read-out: 2-deoxyglucose uptake (EC50 nM)
Method: 1) 2-Deoxy-D-[2,6-3H] glucose uptake assay (in differentiated 3T3-L1 cell)
Undifferentiated adipocyte 3T3-L1 cells were inoculated in a 24-well plate and cultivated in a CO2 incubator at 37° C. To induce differentiation of the undifferentiated adipocytes, the cells were then incubated in a differentiation medium. After adding a certain concentration of each of the test compounds to the medium, the cells were again incubated for 24 hours. After removing the medium, the cells were washed with phosphate buffer, and 0.5 nM of insulin in phosphate buffer was added to the washed cells, followed by incubation for 40 minutes. Then, 0.5 uCi of 2-deoxy-D-[2,6-3H] glucose per well was again added to the cells, which were let stand for 4 minutes. Then, the cells were washed with phosphate buffer, and cell lysis buffer was added, so as to dissolve the cell membranes. The cell sample was placed into a liquid scintillation cocktail solution. The radioactivity of the sample was counted by a liquid scintillation counter.

[2] = system: 3T3-L1 cells; assay: Triglyceride accumulation assay; type: cell-based; settings: 4 days with compound, concentration giving 50% of maximum enhancement of rosiglitazone activation
Method: 2) Triglyceride accumulation assay (in 3T3-L1 cells)
Undifferentiated adipocyte 3T3-L1 cells were inoculated in a 24-well plate and cultivated in a CO2 incubator at 37° C. To induce differentiation of the undifferentiated adipocytes, the cells were then incubated in a differentiation medium for 48 hours. After adding a certain concentration of each of the test compounds to the differentiation medium, the cells were again incubated for 4 days. Then, the final cell sample was placed into 200 μl of 2-propanol. The amount of triglyceride in the cells were measured by Triglyceride Kit [YEONGDONG PHARMACEUTICAL CO. LTD., Korea] commercially available.

[3] = system: mice with diabetes (KK/Ay); assay: Blood glucose- and blood lipid-lowering action in mice with diabetes; type: in vivo; settings: male KK/Ay mice, daily oral administration for 5 days; for Blood glucose (ED25): dose reducing blood glucose by 25%; for Triglyceride (ED25): dose reducing triglyceride by 25%
Method: Male mice with diabetes (KK/Ay: 10 weeks old, 5 animals/group) were housed and given free access to water and food. The animals received a daily oral administration of the test compounds for 5 days. After the last dose, a blood sample was drawn via the orbital sinus.
The plasma was analyzed for blood glucose content using the Glucose-E kit (YEONGDONG PHARMACEUTICAL CO. LTD., Korea), and for triglyceride content using the Triglyceride kit (YEONGDONG PHARMACEUTICAL CO. LTD., Korea).

[4] = system: primary cultured rat hepatocytes
Method: Hepatocytes isolated from rat were inoculated in a collagen-coated 24 well plate and was incubated in a CO2 incubator at 37° C. for 24 hours. Then, a certain concentration of each of the test compounds was added, and the cells were again incubated for 24 hours. The cells were then incubated in a 0.4% neutral red containing medium for 4 hours and washed once with phosphate buffer. 0.5 ml of a solution of 1% acetic acid-50% ethanol was added to the cells, which were let stand. 200 ul of the cell sample was taken and absorbance was measured at 570 nm. The cytotoxicity assay performed on hepatocytes was measured as 25% toxic concentration (TC25, uM). Then, the safety index, i.e. the TC25 value in the cytotoxicity assay in hepatocyte/the EC50 value in the triglyceride accumulation assay, was calculated.

“5-(4-[2(N-methyl-N-(6-(4-anilinyl)pyrimidinyl)amino)ethoxy]benzyl)-2,4-thiazolidinedione [Ex. 21]” was tested. Which EC50 [1] did it give?
The EC50 was 12.8 nM.

And the EC50 [2]?
The EC50 was 7.5 nM.

And the “Blood glucose (ED25)” value [3]?
Its value is 2.6 mg/kg.

What about the “Triglyceride (ED25)” value [3] of the same substance?
The value was 6.2 mg/kg.

And the “Cytotoxicity in hepatocyte (TC25 uM)” value [4]?
The value was 81000 nM.

What about the “Safety index (TC25 nM/EC50 nM)” value [4] of the same substance?
The value was 10800.

What does the source list for “5-(4-[2(N-methyl-N-(6-(4-thiophenoxy)pyrimidinyl)amino)ethoxy]benzyl)-2,4-thiazolidinedione [Ex. 32]”?
EC50 [1]: 5.9 nM; EC50 [2]: 3.2 nM; Blood glucose (ED25) [3]: 1.5 mg/kg; Triglyceride (ED25) [3]: 12.3 mg/kg; Cytotoxicity in hepatocyte (TC25 uM) [4]: 89000 nM; Safety index (TC25 nM/EC50 nM) [4]: 27813

With “5-(4-[2-(N-methyl-N-(2-(4-anilinyl)pyridinyl)amino)ethoxy]benzyl)-2,4-thiazolidinedione [Ex. 38]” as the substance, how does the EC50 [1] read?
Its EC50 is 10.5 nM.

What about the EC50 [2] of the same substance?
The EC50 was 5.5 nM.

What about the “Blood glucose (ED25)” value [3] of the same substance?
Its value is 1.5 mg/kg.

What about the “Triglyceride (ED25)” value [3] of the same substance?
The value was 7.8 mg/kg.

And the “Cytotoxicity in hepatocyte (TC25 uM)” value [4]?
The value was 71000 nM.

And the “Safety index (TC25 nM/EC50 nM)” value [4]?
Its value is 12909.

“5-(4-[2-(N-methyl-N-(2-(4-anilinyl)pyridinyl)amino)ethoxy]benzylidene)-2,4-thiazolidinedione [Ex. 19]” was tested. Which EC50 [1] did it give?
Its EC50 is 48.2 nM.

What about the EC50 [2] of the same substance?
The EC50 was 20.1 nM.

What about the “Blood glucose (ED25)” value [3] of the same substance?
Its value is 3.8 mg/kg.

What about the “Triglyceride (ED25)” value [3] of the same substance?
The value was 15.6 mg/kg.

And the “Cytotoxicity in hepatocyte (TC25 uM)” value [4]?
The value was 81000 nM.

What about the “Safety index (TC25 nM/EC50 nM)” value [4] of the same substance?
Its value is 4030.

Which EC50 [1] does the source give for “5-(4-[2-(N-methyl-N-(2-(4-thiophenoxy)pyridinyl)amino)ethoxy]benzyl)-2,4-thiazolidinedione [Ex. 37]” here?
Its EC50 is 2.8 nM.

And the EC50 [2]?
Its EC50 is 1.2 nM.

And the “Blood glucose (ED25)” value [3]?
The value was 0.22 mg/kg.

What about the “Triglyceride (ED25)” value [3] of the same substance?
Its value is 1.4 mg/kg.

What about the “Cytotoxicity in hepatocyte (TC25 uM)” value [4] of the same substance?
The value was 95000 nM.

And the “Safety index (TC25 nM/EC50 nM)” value [4]?
The value was 79167.
